Assay results taken from the supplement of paper PMC10307832.

Legend:
Assay in all cases: relative viability (nuclei count vs DMSO), 5 days (fraction); higher = more cells survive
[1] = compound: Cc1ccc(C(=O)N(CCCN)[C@@H](c2nc3cc(Cl)ccc3c(=O)n2Cc2ccccc2)C(C)C)cc1 [Ispinesib] + CC(C)C[C@H](NC(=O)[C@H](Cc1ccccc1)NC(=O)c1cnccn1)B(O)O [Bortezomib] (partner 0.002 µM)
In short: (§1)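 After 5 days of treatment, lung cancer cells in 1536-well plates were fixed and stained in a single step (final 0.05% Triton X-100, 1% formaldehyde, 1 ug/ml Hoechst) and their nuclei counted on 4× images. Treatment had been applied by pin tool the day after seeding as one drug alone or as a fixed anchor-drug dose with five library-drug doses (not always all listed) in √10 steps. Relative viability is the nuclei count of treated wells divided by that of vehicle wells, and values are medians of duplicate plates.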

[2] = compound: C[C@]1(O)C[C@@H](c2nc(-c3ccc4ccc(-c5ccccc5)nc4c3)c3c(N)nccn32)C1 [Linsitinib] + Nc1nc2[nH]cc(CCc3ccc(C(=O)N[C@@H](CCC(=O)O)C(=O)O)cc3)c2c(=O)[nH]1 [Pemetrexed] (partner 0.2 µM)
In short: as §1

[3] = compound: Cc1ccc(C(=O)N(CCCN)[C@@H](c2nc3cc(Cl)ccc3c(=O)n2Cc2ccccc2)C(C)C)cc1 [Ispinesib] + CC(=O)c1c(C)c2cnc(Nc3ccc(N4CCNCC4)cn3)nc2n(C2CCCC2)c1=O [Palbociclib] (partner 0.5 µM)
In short: as §1

[4] = compound: Cc1ccc(C(=O)N(CCCN)[C@@H](c2nc3cc(Cl)ccc3c(=O)n2Cc2ccccc2)C(C)C)cc1 [Ispinesib] + CS(=O)(=O)N1CCN(Cc2cc3nc(-c4cccc5[nH]ncc45)nc(N4CCOCC4)c3s2)CC1 [Pictilisib] (partner 1 µM)
In short: as §1

| Cell Line | relative viability ([1]; first compound 0.001 µM) | relative viability ([1]; first compound 0.003162 µM) | relative viability ([1]; first compound 0.01 µM) | relative viability ([1]; first compound 0.03162 µM) | relative viability ([1]; first compound 0.1 µM) | relative viability ([2]; first compound 0.01 µM) | relative viability ([2]; first compound 0.03162 µM) | relative viability ([2]; first compound 0.1 µM) | relative viability ([2]; first compound 0.3162 µM) | relative viability ([2]; first compound 1 µM) | relative viability ([3]; first compound 0.001 µM) | relative viability ([3]; first compound 0.003162 µM) | relative viability ([3]; first compound 0.01 µM) | relative viability ([3]; first compound 0.03162 µM) | relative viability ([3]; first compound 0.1 µM) | relative viability ([4]; first compound 0.001 µM) | relative viability ([4]; first compound 0.003162 µM) | relative viability ([4]; first compound 0.01 µM) | relative viability ([4]; first compound 0.03162 µM) | relative viability ([4]; first compound 0.1 µM) |
| --- | --- | --- | --- | --- | --- | --- | --- | --- | --- | --- | --- | --- | --- | --- | --- | --- | --- | --- | --- | --- |
| LCLC-97TM1 | 0.518 | 1.16 | 0.689 | 0.143 | 0.254 | 0.157 | 0.159 | 0.188 | 0.124 | 0.157 | 0.238 | 0.343 | 0.279 | 0.181 | 0.119 | 0.251 | 0.187 | 0.192 | 0.111 | 0.126 |
| LCLC-103H | 0.96 | 1.27 | 1.19 | 0.813 | 0.447 | 0.441 | 0.459 | 0.46 | 0.341 | 0.505 | 0.447 | 0.545 | 0.476 | 0.441 | 0.465 | 0.6 | 0.624 | 0.682 | 0.495 | 0.572 |
| LOU-NH91 | 0.507 | 0.507 | 0.575 | 0.444 | 0.395 | 0.405 | 0.345 | 0.394 | 0.357 | 0.392 | 0.535 | 0.548 | 0.513 | 0.52 | 0.336 | 0.482 | 0.54 | 0.508 | 0.427 | 0.256 |
| LU99A | 1.06 | 1.12 | 1.33 | 0.223 | 0.183 | 0.161 | 0.144 | 0.193 | – | 0.198 | 0.398 | 0.44 | 0.481 | 0.315 | 0.285 | 0.358 | 0.286 | 0.287 | 0.223 | 0.161 |
| LXF-289 | 0.993 | 0.992 | 1.14 | 0.799 | 0.118 | 0.879 | 0.88 | 0.927 | 0.777 | 0.861 | 0.629 | 0.666 | 0.674 | 0.619 | 0.589 | 0.846 | 0.812 | 0.909 | 0.709 | 0.123 |
| NCI-H23 | 0.977 | 1.09 | 1.6 | 0.331 | 0.241 | 0.78 | 0.474 | 0.786 | 0.394 | 0.419 | 0.457 | 0.529 | 0.629 | 0.372 | 0.187 | 0.441 | 0.479 | 0.557 | 0.251 | 0.189 |
| NCI-H322M | 1.38 | 1.33 | 1.41 | 0.722 | 0.757 | 0.612 | 0.605 | 0.582 | 0.59 | 0.523 | 0.5 | 0.505 | 0.494 | 0.463 | 0.426 | 0.527 | 0.489 | 0.54 | 0.44 | 0.397 |
| NCI-H441 | 0.48 | 0.668 | 0.4 | 0.41 | 0.228 | 0.246 | 0.284 | 0.259 | 0.234 | 0.291 | 0.237 | 0.25 | 0.208 | 0.174 | 0.136 | 0.441 | 0.505 | 0.468 | 0.145 | 0.209 |
| NCI-H460 | 1.53 | 1.48 | – | 0.793 | 0.0396 | 0.0547 | 0.0538 | 0.065 | – | 0.0715 | 0.288 | 0.181 | 0.184 | 0.0542 | 0.0736 | 0.415 | 0.425 | 0.449 | 0.229 | 0.0764 |
| NCI-H520 | 0.568 | 0.706 | 0.541 | 0.218 | 0.242 | 0.623 | 0.377 | 0.762 | – | 0.598 | 0.186 | 0.223 | 0.221 | 0.21 | 0.167 | 0.353 | 0.276 | 0.295 | 0.181 | 0.172 |
| NCI-H647 | 0.98 | 0.849 | 0.655 | 0.16 | 0.167 | 0.228 | 0.115 | 0.185 | 0.172 | 0.197 | 0.393 | 0.327 | 0.518 | 0.208 | 0.0953 | 0.402 | 0.504 | 0.449 | 0.104 | 0.0557 |
| NCI-H650 | 0.875 | 1.25 | 0.826 | 0.582 | 0.355 | 0.878 | 1.05 | 0.923 | – | 0.739 | 0.301 | 0.309 | 0.361 | 0.324 | 0.335 | 0.861 | 0.99 | 0.868 | 0.827 | 0.402 |
| NCI-H661 | 0.821 | 0.78 | 0.688 | 0.771 | 0.665 | 0.904 | 0.738 | 0.9 | 0.935 | 0.895 | 0.398 | 0.4 | 0.406 | 0.282 | 0.248 | 0.387 | 0.471 | 0.41 | 0.31 | 0.332 |
| NCI-H838 | 0.745 | 0.9 | 0.991 | 0.674 | 0.23 | 0.252 | 0.209 | 0.256 | 0.214 | 0.212 | 0.23 | 0.23 | 0.262 | 0.212 | 0.137 | 0.451 | 0.494 | 0.544 | 0.392 | 0.257 |
| NCI-H1355 | 1.28 | 1.23 | 1.43 | 0.815 | 0.293 | 1.11 | 0.759 | 0.945 | 0.798 | 0.637 | 0.397 | 0.425 | 0.436 | 0.373 | 0.331 | 0.418 | 0.434 | 0.489 | 0.252 | 0.198 |
